{"source": "paper PMC10269678", "about": "“Identification of Fungus-Derived Natural Products as New Antigiardial Scaffolds” (Microbiology Spectrum, 2023)", "key": {"[1]": {"system": "G. lamblia strain CBG99", "assay": "G. lamblia CBG99 luciferase reporter trophozoite growth assay", "assay_type": "cell-based, Giardia lamblia", "details": "for inhibition at 10 µM: read-out: % inhibition at 10 μM; for times more potent than metronidazole: relative to metronidazole EC50 of 5 μM; for % inhibition at 10 μM: pNP tested at 10 μM, G. lamblia growth, primary screen", "from_the_text": "For in vitro Giardia assays, we used a click beetle green (CBG99) luciferase-based reporter system that was developed for quantitative bioluminescence readouts of growth in trophozoites ([13][–][15]). The CBG99 reporter gene is under the control of the glutamate dehydrogenase promoter, which is highly expressed in the G. lamblia trophozoite stage, making it useful for monitoring growth even in mouse infection models ([15]). The compound library was obtained from the Natural Products Discovery Group (NPDG) at the University of Oklahoma ([16]). A combination of 755 purified natural products (pNPs) and 1,056 fungal extracts were screened against G. lamblia strain CBG99. Hits were defined as samples that caused ≥50% growth inhibition activity at 10 μM (pNPs) or 5 μg/mL (extracts). […] Only 2 were considered false positives (EC50 > 10 μM) (Table 2)."}, "[2]": {"system": "G. lamblia strain CBG99", "parameters": "method as in PMID 26324270", "details": "cited from earlier work"}, "[3]": {"details": "Giardia duodenalis, read-out: EC50 ± SD (μM)"}, "[4]": {"details": "Giardia duodenalis, read-out: EC50 against G. lamblia trophozoite"}, "[5]": {"details": "G. lamblia trophozoite growth in vitro, Table 2, read-out: EC50 ± SD"}}, "note": "Where two headings read alike, the source gives them in different places.", "data": [{"molecule": "COC1=CC(=O)CC(C)C12Oc1cc(OC)cc(OC)c1C2=O", "note": "(centres unmarked) [J16A, Dechlorogriseofulvin]", "values": [{"measurement": "EC50", "setting": "[1]; Giardia duodenalis, read-out: Giardia EC50 (μM)", "result": "> 15", "unit": "µM"}]}, {"molecule": "CC(C)C1NC(=O)C(CC2(O)c3ccccc3N3C(=O)C(C)(C)NC32)n2c1nc1ccccc1c2=O", "note": "(stereo not drawn) [J16E, epi-Fiscalin C]", "values": [{"measurement": "EC50", "setting": "[1]; Giardia duodenalis", "result": 0.555, "unit": "µM"}]}, {"molecule": "COC1=CC(=O)C[C@@H](C)[C@]12Oc1c(Cl)c(OC)cc(OC)c1C2=O", "note": "[J16K, Griseofulvin]", "values": [{"measurement": "EC50", "setting": "[1]; Giardia duodenalis", "result": 7.88, "unit": "µM"}]}, {"molecule": "CC1(C)C(=O)N2c3ccccc3C3(CC(n4cnc5ccccc5c4=O)C(=O)O3)C2N1O", "note": "(centres unmarked) [J16L, Tryptoquivaline L]", "values": [{"measurement": "EC50", "setting": "[1]; Giardia duodenalis", "result": 7.15, "unit": "µM"}]}, {"molecule": "CC(C)=C1NC(=O)C(CC2(O)c3ccccc3N3C(=O)C(C)(C)NC32)n2c1nc1ccccc1c2=O", "note": "(centres unmarked) [J16M, Quinadoline A]", "values": [{"measurement": "EC50", "setting": "[1]; Giardia duodenalis", "result": 3.29, "unit": "µM"}]}, {"molecule": "COC12OC1(C13OC1(OC)C(=O)c1cc4cc(C)oc(=O)c4c(O)c1C3O)C(O)c1c(cc3cc(C)oc(=O)c3c1O)C2=O", "note": "(centres unmarked) [J16R, Xanthoepocin]", "values": [{"measurement": "EC50", "setting": "[1]; Giardia duodenalis", "result": 0.146, "unit": "µM"}]}, {"molecule": "CC(C)C(=O)c1nc2ccccc2c(=O)n1C1CC2(OC1=O)c1ccccc1N1C(=O)C(C)(C)NC12", "note": "(centres unmarked) [J36B]", "values": [{"measurement": "EC50", "setting": "[1]; Giardia duodenalis", "result": 0.044, "unit": "µM"}]}, {"molecule": "CC(=O)ON1C2N(C(=O)C1(C)C)c1ccccc1C21CC(n2c(C(O)C(C)C)nc3ccccc3c2=O)C(=O)O1", "note": "(centres unmarked) [J36C, isotryptoquivaline]", "values": [{"measurement": "EC50", "setting": "[1]; Giardia duodenalis", "result": 0.84, "unit": "µM"}]}, {"molecule": "N[C@H](C(=O)O)[C@@H]1CC(Cl)=NO1", "note": "[NPDG 120071, Acivicin]", "values": [{"measurement": "inhibition at 10 µM", "setting": "[1]; Giardia duodenalis", "result": 85, "unit": "%"}, {"measurement": "EC50", "setting": "[1]; [3]", "result": "> 10", "unit": "µM"}]}, {"molecule": "COC(=O)C1=C[C@@H](O)[C@@H](O)[C@@H](O)[C@H]1N1C[C@H](O)[C@@H](OC(C)=O)[C@H]1Cc1ccc(OC)cc1", "note": "[NPDG 150029, Anisomycin 1-N-pericosine]", "values": [{"measurement": "inhibition at 10 µM", "setting": "[1]; Giardia duodenalis", "result": 86, "unit": "%"}, {"measurement": "EC50", "setting": "[1]; [3]", "result": "3.32 ± 0.01", "unit": "µM"}]}, {"molecule": "CO[C@@H]1[C@H](OC(=O)\\C=C/C=C/C=C/C=C/C(=O)O)CC[C@]2(CO2)[C@H]1[C@@]1(C)O[C@@H]1CC=C(C)C", "note": "[NPDG 150049, cis-Fumagillin]", "values": [{"measurement": "inhibition at 10 µM", "setting": "[1]; Giardia duodenalis", "result": 85, "unit": "%"}, {"measurement": "EC50", "setting": "[1]; [4]", "result": "< 0.2", "unit": "µM"}, {"measurement": "EC50", "setting": "[1]; [3]", "result": "0.03 ± 0.02", "unit": "µM"}, {"measurement": "times more potent than metronidazole", "setting": "[1]", "result": "> 25", "unit": "times"}]}, {"molecule": "COC(=O)c1c(Sc2c(O)cc3oc4cc(C)cc(O)c4c(=O)c3c2C(=O)OC)c(O)cc(OC)c1C(=O)c1c(O)cc(C)cc1O", "note": "[NPDG 150051, Dioschrin]", "values": [{"measurement": "EC50", "setting": "[1]; [5]", "result": "3.21 ± 0.61", "unit": "µM"}, {"measurement": "% inhibition at 10 μM", "setting": "[1]", "result": 82, "unit": "%"}]}, {"molecule": "CC(=O)OC(C)(C)[C@H]1O[C@H]2CC[C@@]3(C)[C@@](O)(CC[C@H]4Cc5c([nH]c6ccccc56)[C@@]43C)C2=CC1=O", "note": "[NPDG 150113, 1′-O-acetylpaxilline]", "values": [{"measurement": "EC50", "setting": "[1]; [5]", "result": 3.4, "unit": "µM"}, {"measurement": "% inhibition at 10 μM", "setting": "[1]", "result": 82, "unit": "%"}]}, {"molecule": "C/C=C/C=C/C=C/C(=O)O[C@@H]1C=C2COC(=O)[C@]2(O)[C@@]2(C)CCCC(C)(C)[C@H]12", "note": "[NPDG 150125, RES-1149-2]", "values": [{"measurement": "inhibition at 10 µM", "setting": "[1]; Giardia duodenalis", "result": 88, "unit": "%"}, {"measurement": "EC50", "setting": "[1]; [4]", "result": "< 0.2", "unit": "µM"}, {"measurement": "EC50", "setting": "[1]; [3]", "result": "0.18 ± 0.11", "unit": "µM"}, {"measurement": "times more potent than metronidazole", "setting": "[1]", "result": "> 25", "unit": "times"}]}, {"molecule": "C/C=C(\\C)c1cc(OC)c(C)c2c1Oc1c(CO)c(O)cc(/C(C)=C/C(=O)O)c1C(=O)O2", "note": "[NPDG 150134, Auranticin A]", "values": [{"measurement": "inhibition at 10 µM", "setting": "[1]; Giardia duodenalis", "result": 89, "unit": "%"}, {"measurement": "EC50", "setting": "[1]; [3]", "result": "4.44 ± 3.02", "unit": "µM"}]}, {"molecule": "COC1C(OC(=O)C=CC=CC=CC=CC(=O)O)CCC(O)(CCl)C1C1(C)OC1CC=C(C)C", "note": "(centres unmarked) [NPDG 150137]", "values": [{"measurement": "inhibition at 10 µM", "setting": "[1]; Giardia duodenalis", "result": 90, "unit": "%"}, {"measurement": "EC50", "setting": "[1]; [4]", "result": "< 0.2", "unit": "µM"}, {"measurement": "EC50", "setting": "[1]; [3]", "result": 0.006, "unit": "µM"}, {"measurement": "times more potent than metronidazole", "setting": "[1]", "result": "> 25", "unit": "times"}]}, {"molecule": "C=C1CC[C@@H](OC(=O)/C=C/C=C/C=C/C=C/C(=O)O)[C@@H](OC)[C@H]1[C@@]1(C)O[C@@H]1CC=C(C)C", "note": "[NPDG 150138, Sch 528647]", "values": [{"measurement": "EC50", "setting": "[1]; [5]", "result": "3.09 ± 0.16", "unit": "µM"}, {"measurement": "% inhibition at 10 μM", "setting": "[1]", "result": 88, "unit": "%"}]}, {"molecule": "COC1=CC(=O)c2c(O)c(C)c(CC(C)=O)c(O)c2C1=O", "note": "[NPDG 160012, Javanicin]", "values": [{"measurement": "inhibition at 10 µM", "setting": "[1]; Giardia duodenalis", "result": 89, "unit": "%"}, {"measurement": "EC50", "setting": "[1]; [3]", "result": "1.26 ± 1.01", "unit": "µM"}]}, {"molecule": "CC(=O)C1=C(O)[C@@H]2[C@H]3c4c[nH]c5cccc(c45)C[C@H]3C(C)(C)N2C1=O", "note": "[NPDG 170027, Cyclopiazonic acid]", "values": [{"measurement": "inhibition at 10 µM", "setting": "[1]; Giardia duodenalis", "result": 81, "unit": "%"}, {"measurement": "EC50", "setting": "[1]; [3]", "result": "1.3 ± 0.71", "unit": "µM"}]}, {"molecule": "CC(=O)O[C@H]1C[C@@]2(C)[C@@H](CC[C@H]3[C@@]4(C)C=CC(=O)[C@@H](C)[C@@H]4[C@H](OC(C)=O)C(=O)[C@@]32C)/C1=C(\\CCC=C(C)C)C(=O)O", "note": "[NPDG 170028, Helvolic acid]", "values": [{"measurement": "inhibition at 10 µM", "setting": "[1]; Giardia duodenalis", "result": 83, "unit": "%"}, {"measurement": "EC50", "setting": "[1]; [3]", "result": "3.36 ± 0.14", "unit": "µM"}]}, {"molecule": "CO[C@@H]1[C@H](OC(=O)/C=C/C=C/C=C/C=C/C(=O)O)CC[C@]2(CO2)[C@H]1[C@@]1(C)O[C@@H]1CC=C(C)C", "note": "[NPDG 170035, Fumagillin]", "values": [{"measurement": "inhibition at 10 µM", "setting": "[1]; Giardia duodenalis", "result": 88, "unit": "%"}, {"measurement": "EC50", "setting": "[1]; [4]", "result": "< 0.2", "unit": "µM"}, {"measurement": "EC50", "setting": "[1]; [3]", "result": 0.004, "unit": "µM"}, {"measurement": "times more potent than metronidazole", "setting": "[1]", "result": "> 25", "unit": "times"}]}, {"molecule": "C[C@@H]1N[C@H]2N(C1=O)c1ccccc1[C@@]21C[C@@H]2C(=O)N[C@@](C)(O1)c1nc3ccccc3c(=O)n12", "note": "[NPDG 170098, Fumiquinazoline C]", "values": [{"measurement": "EC50", "setting": "[1]; [5]", "result": "6.92 ± 8.5", "unit": "µM"}, {"measurement": "% inhibition at 10 μM", "setting": "[1]", "result": 82, "unit": "%"}]}, {"molecule": "Cc1ncc([N+](=O)[O-])n1CCO", "note": "[metronidazole]", "values": [{"measurement": "EC50", "setting": "[2]", "result": 5, "unit": "µM"}]}, {"molecule": "Perfraglin A [NPDG 120038]", "values": [{"measurement": "EC50", "setting": "[1]; [5]", "result": "> 10", "unit": "µM"}, {"measurement": "% inhibition at 10 μM", "setting": "[1]", "result": 75, "unit": "%"}]}]}
